In ChEMBL document CHEMBL1212752, “Efficacy of posaconazole in a murine disseminated infection by Candida tropicalis” (2010):
In brackets after ≈: the same amount, converted by molar mass. Activity calls are given as the source filed them. No cut-off for these calls is given here.

Assays:
[1] = system: Candida tropicalis; assay: Antifungal activity against Candida tropicalis FMR 9727 infected in immunosuppressed OF1 mouse assessed as reduction in fungal tissue burden in mouse kidney at 25 mg/kg, po bid for 5 days; assay type: functional, organism-based; design: dose 25 mg/kg
[2] = system: Candida tropicalis; assay: Antifungal activity against Candida tropicalis FMR 9726 infected in immunosuppressed OF1 mouse assessed as reduction in fungal tissue burden in mouse spleen at 50 mg/kg, po qd for 5 days; assay type: functional, organism-based; design: dose 50 mg/kg
[3] = system: Candida tropicalis; assay: Antifungal activity against Candida tropicalis FMR 10239 infected in immunosuppressed OF1 mouse assessed as reduction in fungal tissue burden in mouse kidney at 25 mg/kg, po bid for 5 dayss; assay type: functional, organism-based; design: dose 25 mg/kg
[4] = system: Candida tropicalis; assay: Antifungal activity against Candida tropicalis FMR 10237 assessed as compound concentration causing =>99% reduction in microbial growth; assay type: functional
[5] = system: Candida tropicalis; assay: Antifungal activity against Candida tropicalis FMR 9727 infected in immunosuppressed OF1 mouse assessed as reduction in fungal tissue burden in mouse kidney at 50 mg/kg, po qd for 5 days; assay type: functional, organism-based; design: dose 50 mg/kg
[6] = system: Candida tropicalis; assay: Antifungal activity against Candida tropicalis FMR 10239 assessed as inhibition of growth by broth dilution method; assay type: functional
[7] = system: Candida tropicalis; assay: Antifungal activity against Candida tropicalis FMR 8898 assessed as compound concentration causing =>99% reduction in microbial growth; assay type: functional
[8] = system: Candida tropicalis; assay: Antifungal activity against Candida tropicalis FMR 10232 assessed as compound concentration causing =>99% reduction in microbial growth; assay type: functional
[9] = system: Candida tropicalis; assay: Antifungal activity against Candida tropicalis FMR 10239 infected in immunosuppressed OF1 mouse assessed as prolongation of mouse survival at 25 mg/kg, po bid for 5 days; assay type: functional, organism-based; design: dose 25 mg/kg
[10] = system: Candida tropicalis; assay: Antifungal activity against Candida tropicalis FMR 10237 infected in immunosuppressed OF1 mouse assessed as reduction in fungal tissue burden in mouse kidney at 50 mg/kg, po qd for 5 days; assay type: functional, organism-based; design: dose 50 mg/kg
[11] = system: Candida tropicalis; assay: Antifungal activity against Candida tropicalis FMR 10241 assessed as inhibition of growth by broth dilution method; assay type: functional
[12] = system: Candida tropicalis; assay: Antifungal activity against Candida tropicalis FMR 8895 infected in immunosuppressed OF1 mouse assessed as prolongation of mouse survival at 50 mg/kg, po qd for 5 days; assay type: functional, organism-based; design: dose 50 mg/kg
[13] = system: Candida tropicalis; assay: Antifungal activity against Candida tropicalis FMR 10237 assessed as inhibition of growth by broth dilution method; assay type: functional
[14] = system: Candida tropicalis; assay: Antifungal activity against Candida tropicalis FMR 10231 assessed as compound concentration causing =>99% reduction in microbial growth; assay type: functional
[15] = system: Candida tropicalis; assay: Antifungal activity against Candida tropicalis FMR 8895 infected in immunosuppressed OF1 mouse assessed as reduction in fungal tissue burden in mouse spleen at 50 mg/kg, po qd for 5 days; assay type: functional, organism-based; design: dose 50 mg/kg
[16] = system: Candida tropicalis; assay: Antifungal activity against Candida tropicalis FMR 10232 assessed as inhibition of growth by broth dilution method; assay type: functional
[17] = system: Candida tropicalis; assay: Antifungal activity against Candida tropicalis FMR 10237 infected in immunosuppressed OF1 mouse assessed as prolongation of mouse survival at 50 mg/kg, po qd for 5 days; assay type: functional, organism-based; design: dose 50 mg/kg
[18] = system: Candida tropicalis; assay: Antifungal activity against Candida tropicalis FMR 10236 assessed as compound concentration causing =>99% reduction in microbial growth; assay type: functional
[19] = system: Candida tropicalis; assay: Antifungal activity against Candida tropicalis FMR 8895 infected in immunosuppressed OF1 mouse assessed as prolongation of mouse survival at 25 mg/kg, po bid for 5 days; assay type: functional, organism-based; design: dose 25 mg/kg
[20] = system: Candida tropicalis; assay: Antifungal activity against Candida tropicalis FMR 9727 infected in immunosuppressed OF1 mouse assessed as reduction in fungal tissue burden in mouse spleen at 25 mg/kg, po bid for 5 days; assay type: functional, organism-based; design: dose 25 mg/kg
[21] = system: Candida tropicalis; assay: Antifungal activity against Candida tropicalis FMR 9727 infected in immunosuppressed OF1 mouse assessed as prolongation of mouse survival at 50 mg/kg, po qd for 5 days; assay type: functional, organism-based; design: dose 50 mg/kg
[22] = system: Candida tropicalis; assay: Antifungal activity against Candida tropicalis FMR 10240 assessed as compound concentration causing =>99% reduction in microbial growth; assay type: functional
[23] = system: Candida tropicalis; assay: Antifungal activity against Candida tropicalis FMR 10234 assessed as compound concentration causing =>99% reduction in microbial growth; assay type: functional
[24] = system: Candida tropicalis; assay: Antifungal activity against Candida tropicalis FMR 8897 assessed as inhibition of growth by broth dilution method; assay type: functional
[25] = system: Candida tropicalis; assay: Antifungal activity against Candida tropicalis FMR 10239 infected in immunosuppressed OF1 mouse assessed as prolongation of mouse survival at 50 mg/kg, po qd for 5 days; assay type: functional, organism-based; design: dose 50 mg/kg
[26] = system: Candida tropicalis; assay: Antifungal activity against Candida tropicalis FMR 10235 assessed as compound concentration causing =>99% reduction in microbial growth; assay type: functional
[27] = system: Candida tropicalis; assay: Antifungal activity against Candida tropicalis FMR 8895 assessed as inhibition of growth by broth dilution method; assay type: functional
[28] = system: Candida tropicalis; assay: Antifungal activity against Candida tropicalis FMR 8897 assessed as compound concentration causing =>99% reduction in microbial growth; assay type: functional
[29] = system: Candida tropicalis; assay: Antifungal activity against Candida tropicalis FMR 8895 infected in immunosuppressed OF1 mouse assessed as reduction in fungal tissue burden in mouse kidney at 50 mg/kg, po qd for 5 days; assay type: functional, organism-based; design: dose 50 mg/kg
[30] = system: Candida tropicalis; assay: Antifungal activity against Candida tropicalis FMR 10237 infected in immunosuppressed OF1 mouse assessed as prolongation of mouse survival at 25 mg/kg, po bid for 5 days; assay type: functional, organism-based; design: dose 25 mg/kg
[31] = system: Candida tropicalis; assay: Antifungal activity against Candida tropicalis FMR 9727 infected in immunosuppressed OF1 mouse assessed as reduction in fungal tissue burden in mouse spleen at 50 mg/kg, po qd for 5 days; assay type: functional, organism-based; design: dose 50 mg/kg
[32] = system: Candida tropicalis; assay: Antifungal activity against Candida tropicalis FMR 10239 infected in immunosuppressed OF1 mouse assessed as reduction in fungal tissue burden in mouse kidney at 50 mg/kg, po qd for 5 dayss; assay type: functional, organism-based; design: dose 50 mg/kg

CC[C@@H]([C@H](C)O)n1ncn(-c2ccc(N3CCN(c4ccc(OC[C@@H]5CO[C@@](Cn6cncn6)(c6ccc(F)cc6F)C5)cc4)CC3)cc2)c1=O [POSACONAZOLE]
Activity [1]: Active | Activity [2]: Active | Activity [3]: Active | MFC [4]: > 16 µg/mL | Activity [5]: Active | MIC50 [6]: < 0.03 µg/mL | MFC [7]: > 16 µg/mL | MFC [8]: > 16 µg/mL | Activity [9]: Active | Activity [10]: Active | MIC50 [11]: 0.125 µg/mL (≈ 0.178 µM) | Activity [12]: Active | MIC50 [13]: 1 µg/mL (≈ 1.43 µM) | MFC [14]: > 16 µg/mL | Activity [15]: inactive | MIC50 [16]: 0.06 µg/mL (≈ 0.0856 µM) | Activity [17]: Active | MFC [18]: > 16 µg/mL | Activity [19]: Active | Activity [20]: Active | Activity [21]: Active | MFC [22]: > 16 µg/mL | MFC [23]: > 16 µg/mL | MIC50 [24]: 0.06 µg/mL (≈ 0.0856 µM) | Activity [25]: Active | MFC [26]: > 16 µg/mL | MIC50 [27]: > 16 µg/mL | MFC [28]: > 16 µg/mL | Activity [29]: inactive | Activity [30]: Active | Activity [31]: Active | Activity [32]: Active
